Measurements as given in patent US8946478B2, “Benzamide derivative with anticancer activity and preparation method and use thereof” (Zhejiang Hisun Pharmaceutical Co., Ltd., priority 2010, dated 2015).

Assays:
[1] = tested on: 18 tumor cell strains; assay: In vitro efficacy screening, summary over the tumor cell strains; type: cell-based, human; conditions: in vitro screening; for inhibitory effects on tumor cell proliferation (in words): BSI-201 as positive drug
Description: (§1) Human colon cancer cell strains (Colo205 and HCT-116), human breast cancer cell strains (MCF-7 and MDA-MB435), human lung cancer cell strains (A549, 95D and NCI460), human ovarian cancer cell strains (OVCAR-5, OVCAR-8, HO8910 and SKOV-3), human leukemia (HL-60 and K562), human prostate cancer (DU145 and BXPC-3), human uterine cancer (Hela), human pancreatic cancer (PANC-1), human hepatoma (HepG 2) were all obtained from ATCC. Colo205, HL-60, K562 cells were cultured in RPMI 1640 containing 2 mM/L glutamine, 10% FBS, 1.0 mM sodium pyruvate. HCT-116, MCF-7, A549, 95D, HO8910, NCI460, OVCAR-5, OVCAR-8, DU145, BXPC-3, Hela, PANC-1, HepG2 cells were cultured in DMEM containing 2 mM/L glutamine, 10% FBS. MDA-MB435 cells were cultured in L-15 containing 2 mM/L glutamine, 10% FBS. SKOV-3 cells were cultured in McCoy's containing 2 mM/L glutamine, 10% FBS. Colo205, HL-60 and K562 cells were seeded in 96-well plates, 150 μL/well and 8000 cells/well, and the 96-well plates were pre-incubated in an incubator at 37° C. with 5% CO2, 100% relative humidity for 24 hours. HCT-116, MCF-7, NCI460, OVCAR-5, OVCAR-8, Hela, HepG 2 and MDA-MB435 cells were seeded in 96-well plates, 5000 cells/well; A549, 95D, HO8910, DU145, BXPC-3, PANC-1 and SKOV-3 cells were seeded in 96-well plates, 10000 cells/well, and the 96-well plates were pre-incubated in an incubator at 37° C. with 5% CO2, 100% relative humidity for 24 hours, to allow the cells to adhere.
(§2) 50 μL of pre-cooled 50% (mass/volume) TCA was added into the time zero control wells for each cell strain to fix the cells. To other wells, 50 μL of various concentrations of compounds were added, and maintained for 48 h, wherein each drug concentration was in triplicate, and there were blank control wells (cell culture medium without cells), drug-free control wells (with no drugs but the same volume of complete medium) and positive drug BSI-201 control wells, and the plates were incubated in an incubator at 37° C. with 5% CO2, full humidity (100% relative humidity) for 48 hours
(§3) 50 μL pre-cooled 50% (mass/volume) TCA was added onto the surface of the culture medium to fix the cells, which was then placed at 4° C. for 1 h. The supernatant was removed and each well was washed with deionized water for 5 times to remove TCA, serum proteins, etc. After dried in the air, about 100 μL enough amount of 0.4% SRB (formulated with 1% acetic acid) was added into each well, and was placed at room temperature for 20 to 30 min. Liquid in each well was discarded and each well was rapidly washed with 1% acetic acid for five times, to remove unbound dye until the unbound dye was completely rinsed clean. After dried in the air until the moisture was invisible, each well was added 200 μL Tris base to dissolve, shaken on a plate oscillator for 5 min or mixed by beating up and down with a pipette tip, and then measured on the multi-function instruction (M5 Detection System, MD Group Ltd.) with a detection wavelength of 515 nm, zero adjusted with 690 nm blank control.
(§4) The dose-response curve was plotted by XL-fit to determine the GI50 value.

[2] = tested on: human colon cancer cell strain Colo205; assay: In vitro SRB tumor cell growth inhibition (GI50); type: cell-based; conditions: Colo 205 cells, 48 h
Description: as §1, §2, §3, §4

[3] = tested on: human ovarian cancer cell strain HO8910; assay: In vitro SRB tumor cell growth inhibition (GI50); type: cell-based; conditions: HO-8910, HO8910 cells, 48 h
Description: as §1, §2, §3, §4

[4] = tested on: human ovarian cancer cell strain SKOV-3; assay: In vitro SRB tumor cell growth inhibition (GI50); type: cell-based; conditions: SK-OV-3, SKOV-3 cells, 48 h
Description: as §1, §2, §3, §4

[5] = tested on: human pancreatic cancer PANC-1; assay: In vitro SRB tumor cell growth inhibition (GI50); type: cell-based; conditions: Homo sapiens, PANC-1, 48 h, PANC-1 cells
Description: as §1, §2, §3, §4

[6] = tested on: human breast cancer cell strain MDA-MB435; assay: In vitro SRB tumor cell growth inhibition (GI50); type: cell-based; conditions: Homo sapiens, MDA-MB-435, 48 h, MDA-MB435 cells
Description: as §1, §2, §3, §4

[7] = tested on: human breast cancer cell strain MCF-7; assay: In vitro SRB tumor cell growth inhibition (GI50); type: cell-based; conditions: Homo sapiens, MCF7, 48 h, MCF-7 cells
Description: as §1, §2, §3, §4

[8] = tested on: human lung cancer cell strain NCI-460; assay: In vitro SRB tumor cell growth inhibition (GI50); type: cell-based; conditions: Homo sapiens, NCI-460, 48 h, NCI-460 cells
Description: as §1, §2, §3, §4

[9] = tested on: human ovarian cancer cell strain OVCAR-5; assay: In vitro SRB tumor cell growth inhibition (GI50); type: cell-based; conditions: OVCAR-5 cells, 48 h
Description: as §1, §2, §3, §4

[10] = tested on: human uterine cancer Hela; assay: In vitro SRB tumor cell growth inhibition (GI50); type: cell-based; conditions: Homo sapiens, HeLa, 48 h, Hela cells
Description: as §1, §2, §3, §4

[11] = tested on: human ovarian cancer cell strain OVCAR-8; assay: In vitro SRB tumor cell growth inhibition (GI50); type: cell-based; conditions: OVCAR-8 cells
Description: as §1, §2, §3, §4

[12] = tested on: human colon cancer cell strain HCT-116; assay: In vitro SRB tumor cell growth inhibition (GI50); type: cell-based; conditions: Homo sapiens, HCT-116, 48 h, HCT-116 cells
Description: as §1, §2, §3, §4

[13] = tested on: human prostate cancer BXPC-3; assay: In vitro SRB tumor cell growth inhibition (GI50); type: cell-based; conditions: BXPC-3 cells, 48 h
Description: as §1, §2, §3, §4

[14] = tested on: human hepatoma HepG 2; assay: In vitro SRB tumor cell growth inhibition (GI50); type: cell-based; conditions: HepG2, HepG 2 cells, 48 h
Description: as §1, §2, §3, §4

[15] = tested on: human lung cancer cell strain 95D; assay: In vitro SRB tumor cell growth inhibition (GI50); type: cell-based; conditions: Homo sapiens, 95-D, 48 h, 95D cells
Description: as §1, §2, §3, §4

[16] = tested on: human leukemia HL-60; assay: In vitro SRB tumor cell growth inhibition (GI50); type: cell-based; conditions: Homo sapiens, HL-60, 48 h, HL-60 cells
Description: as §1, §2, §3, §4

[17] = tested on: human prostate cancer DU145; assay: In vitro SRB tumor cell growth inhibition (GI50); type: cell-based; conditions: Homo sapiens, DU-145, 48 h, DU145 cells
Description: as §1, §2, §3, §4

[18] = tested on: human leukemia K562; assay: In vitro SRB tumor cell growth inhibition (GI50); type: cell-based; conditions: Homo sapiens, K562, 48 h, K562 cells
Description: as §1, §2, §3, §4

[19] = tested on: human lung cancer cell strain A549; assay: In vitro SRB tumor cell growth inhibition (GI50); type: cell-based; conditions: A549 cells, 48 h
Description: as §1, §2, §3, §4

Row | SMILES | GI50 [2] [µM] | GI50 [3] [µM] | GI50 [4] [µM] | GI50 [5] [µM] | GI50 [6] [µM] | GI50 [7] [µM] | GI50 [9] [µM] | GI50 [10] [µM] | GI50 ([11]; Homo sapiens, OVCAR-8, 48 h) [µM] | GI50 [12] [µM] | GI50 [13] [µM] | GI50 [14] [µM] | GI50 [15] [µM] | GI50 [16] [µM] | GI50 [17] [µM] | GI50 [18] [µM] | GI50 [19] [µM] | efficacy in inhibition of tumor cell proliferation, graded in words against I-1 [1] | inhibitory effects on tumor cell proliferation (in words) [1] | GI50 [8] [µM] | other results
1 | C#Cc1ccc(C(=O)N(CC)CC)cc1[N+](=O)[O-] [Compound I-14, N,N-diethyl-4-ethynyl-3-nitrobenzamide] | 2.79 | 5 | 10.3 | 19.9 | 1.01 | 20.1 | 20.9 | 6.7 | 3.64 | 11.2 | 4.9 | 4.27 | 16.8 | 1.99 | 4.17 | 4.52 | 17.6 | slightly lower than that of I-1 | have inhibitory effects on tumor cell proliferation | 20.9 | 
2 | C#Cc1ccc(C(=O)NCC)cc1[N+](=O)[O-] [Compound I-17, N-ethyl-4-ethynyl-3-nitrobenzamide] | 3.21 | 3.34 | 8.4 | 12.4 | 2.76 | 10.6 | 16.1 | 4.43 | 4.6 | 5.06 | 4.79 | 5.85 | 10.3 | 2.62 | 2.99 | 2.59 | 12.2 | slightly lower than that of I-1 | have inhibitory effects on tumor cell proliferation | 14 | 
3 | C#Cc1ccc(C(=O)N2CCCCC2)cc1[N+](=O)[O-] [Compound I-21, (4-ethynyl-3-nitrophenyl)(piperidin-1-yl)ketone] | 1.52 | 4.34 | 22.5 | 12.5 | 5.86 | 16.1 | 17.5 | 4.17 | 1.64 | 8.44 | 3.91 | 16 | 14.5 | 2.87 | 2.24 | 1.77 | 17.9 | slightly lower than that of I-1 | have inhibitory effects on tumor cell proliferation | 5.86 | 

The next lines start with results.

Row | GI50 [2] [µM] | GI50 [3] [µM] | GI50 [4] [µM] | GI50 [5] [µM] | GI50 [6] [µM] | GI50 [7] [µM] | GI50 [9] [µM] | GI50 [10] [µM] | GI50 ([11]; Homo sapiens, OVCAR-8, 48 h) [µM] | GI50 [12] [µM] | GI50 [13] [µM] | GI50 [14] [µM] | GI50 [15] [µM] | GI50 [16] [µM] | GI50 [17] [µM] | GI50 [18] [µM] | GI50 [19] [µM] | SMILES | efficacy in inhibition of tumor cell proliferation, graded in words against I-1 [1] | inhibitory effects on tumor cell proliferation (in words) [1] | GI50 [8] [µM] | other results
4 | 2.61 | 4.85 | 9.91 | 7.64 | 8.49 | 20.6 | 20.3 | 8.98 | 4.01 | 9.99 | 3.35 | 5.54 | 15.1 | 2.24 | 4.99 | 4.35 | 17.3 | C#Cc1ccc(C(=O)N2CCCC2)cc1[N+](=O)[O-] [Compound I-20, (4-ethynyl-3-nitrophenyl)(pyrrolidin-1-yl)ketone] | slightly lower than that of I-1 | have inhibitory effects on tumor cell proliferation | 19.9 | 
5 | 10.9 | 10.2 | 9.77 | 24.3 | 14.5 | 21.5 | 35.6 | 10.1 |  | 8.62 | 10.2 | 7.12 | 25.8 | 2.47 | 6.17 | 8.03 | 30.1 | C#Cc1ccc(C(=O)N2CCN(C)CC2)cc1[N+](=O)[O-] [Compound I-24, (4-ethynyl-3-nitrophenyl)(4-methylpiperazin-1-yl)ketone] | slightly lower than that of I-1 | have inhibitory effects on tumor cell proliferation | 31.1 | GI50 ([11]; 48 h): 8.92 µM
